From publication PMC6747015, “Structure–function study of a novel inhibitor of the casein kinase 1 family in Arabidopsis thaliana” (Plant Direct, 2019)

Legend:
Recombinant CKL4 kinase = target: T1, Recombinant CKL4 kinase (Arabidopsis thaliana, UniProt Q8LPI7); experiment: In vitro phosphorylation assay of CKL4 (32P phosphorylation of casein); format: biochemical; conditions: recombinant CKL4, casein, 32P‐ATP, 37°C for 2 hr; read-out: IC50 for in vitro CKL4 kinase activity
T1 sequence (Q8LPI7 1-414): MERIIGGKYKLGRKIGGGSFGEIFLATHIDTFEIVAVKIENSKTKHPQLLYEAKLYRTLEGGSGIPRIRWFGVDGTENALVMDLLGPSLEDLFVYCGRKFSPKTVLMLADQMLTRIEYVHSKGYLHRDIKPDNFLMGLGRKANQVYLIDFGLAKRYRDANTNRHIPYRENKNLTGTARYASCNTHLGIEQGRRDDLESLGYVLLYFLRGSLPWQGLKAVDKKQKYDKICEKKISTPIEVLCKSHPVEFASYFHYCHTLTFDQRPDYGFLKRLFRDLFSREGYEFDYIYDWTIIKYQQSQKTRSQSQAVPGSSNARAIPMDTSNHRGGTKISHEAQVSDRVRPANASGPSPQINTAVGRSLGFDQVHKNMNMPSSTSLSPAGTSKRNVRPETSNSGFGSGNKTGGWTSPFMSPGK
Experimental: In vitro phosphorylation assays using recombinant CKL4 were performed as described previously (Uehara et al., 2019), with synthetic small molecules. IC261 and PF‐670462 were purchased (Sigma‐Aldrich catalog numbers I0658 and SML0795, respectively). PHA767491 was synthesized as previously described (Uehara et al., 2019). All chemical compounds were dissolved in dimethyl sulfoxide (DMSO) as 10 mM stock solutions. Stock solutions were diluted with DMSO to the working concentration and added to assays in kinase reaction buffer (Uehara et al., 2019).
The activities of three known CK1 inhibitors were measured in vitro by a previously reported method (Uehara et al., 2019). Recombinant CKL4 kinase, casein, ^32P‐ATP, and different concentrations of the inhibitors were combined in a reaction buffer and kept at 37°C for 2 hr. Resulting samples were separated on a polyacrylamide gel by electrophoresis, and ^32P phosphorylation of casein was measured as an indicator of CKL4 kinase activity. IC50 (half‐maximal inhibitory concentration) was determined by calculating the results from at least two independent experiments. […] The stronger in vitro CK1 inhibitory activity shown by PF‐670462 relative to PHA767491 was consistent with previous reports (Uehara et al., 2019).

PRR7 = experiment: RT-qPCR of the CK1 downstream gene PRR7; format: in vivo, Arabidopsis; conditions: 6 hr
Experimental: Arabidopsis Col‐0 seedlings that had been grown under constant light conditions for […] were immersed in 10 or 50 µM of the GSK‐3, SHAGGY‐related, and BIN2 kinase inhibitor Bikinin (SML0094, Sigma) (De Rybel et al., 2009), […], or DMSO as control for 6 hr. Three biological replicates were used for each assay. Harvested seedlings were frozen in liquid nitrogen and crushed with zirconia beads in a Tissue Lyser II, and RNA was isolated with Illustra RNAspin (25‐0500‐72, GE Healthcare). RT‐qPCR was performed as described previously (Nakamichi et al., 2010) using an Eco Real‐Time PCR System (Illumina). Gene expression was normalized against IPP2, and maximal values were set to 1. Primers for detecting IPP2, PRR7, GR60ox2, and CPD were described previously (De Rybel et al., 2009; Kamioka et al., 2016).
Because the ATSK family was identified by the molecular probe assay as potential targets of AMI‐331, even though the affinities between AMI‐331 and ATSKs were not as high as between AMI‐331 and CK1, we used the ATSK inhibitor Bikinin to determine if AMI‐331 treatment affects the expression of genes downstream of ATSKs (De Rybel et al., 2009). Four‐day‐old Arabidopsis seedlings grown under constant light conditions were treated with Bikinin or AMI‐331 for 6 hr, and mRNA extracted from seedlings samples was analyzed by RT‐qPCR.

`C#CCn1c2c(c(Br)c1-c1ccncc1)C(=O)NCC2.Cl` [AMI‐331] was tested, and the IC50 (Recombinant CKL4 kinase) was 700 nM, the PRR7 transcript abundance (PRR7; 1 µM) was “significantly decreased” and the PRR7 transcript abundance (PRR7; 5 and 25 µM) was “decreased”.
